Literature values, collected in US6366801B1, “Pharmaceutically enhanced low-energy radiosurgery” (Sirius Medicine, LLC, priority 1997, dated 2002).

How the values were obtained:
brain tumors = conditions: low-energy x-rays and iodine, brain tumors in rabbits (Iwamoto et al.)
lymphocytes = conditions: iodine with low-energy photons, lymphocytes (Santos Mello et al.)
cells in vitro = conditions: iodine concentration of 50 mg/ml, cells in vitro (Dawson et al.)

II [iodine]
dose enhancement (brain tumors): about 30% | dose enhancement (lymphocytes): up to 3 | effect on radiation damage to cells (cells in vitro): radiation enhancement of cell damage
